Experimental data as given in article PMC9856672, “SGC-CAMKK2-1: A Chemical Probe for CAMKK2” (Cells, 2023).
“Also recorded” adds a separate entry of the source.

Columns and labels:
[1] = tested on: p-AMPK(Thr172) in C4-2 cells; test: Western blot of p-AMPK(Thr172) in C4-2 prostate cancer cells; format: cell-based; conditions: 24 h treatment; for IC50: C4-2, 24 h, three individual experiments, read-out: IC50 for decrease of p-AMPK(Thr172) normalized to total AMPK
Description: C4-2 cells were plated in 6-well plates in IMEM medium containing 0.5% FBS. After 72 h, the cells were then treated with the compounds for 24 h before the media was aspirated and cells were washed twice in ice-cold PBS. Cells were lysed using RIPA buffer containing phosphatase and protease inhibitor cocktail while rotating for 30 min at 4 °C. In each lane, 30 μg/well of protein lysate was loaded into a 10% SDS-PAGE gel and run for 1 h and 30 min. Gels were then transferred overnight in a TRIS-glycine/methanol transfer buffer onto a PVDF membrane at 4 °C. Membranes were blocked, incubated with primary overnight at 4 °C, washed, incubated with secondary at room temperature for 1 h, washed, and then developed on an Azure Biosystems C-600 imager. Densitometry was performed using ImageJ. Total-AMPK was normalized to GAPDH and then p-AMPK was normalized to normalized total-AMPK. Normalized p-AMPK was used to calculate IC50 in GraphPad Prism 9.5.0. Primary antibodies used were from Cell Signaling (Danvers, MA, USA; Phospho-AMPKα (Thr172) (40H9) Rabbit mAb: Cat#: 2535; AMPKα (D5A2) Rabbit mAb Cat#: 5831), BD Bioscience (Franklin Lakes, NJ, USA; CAMKK2 mouse mAb Cat# 610544), and Sigma (St. Louis, MO, USA; GAPDH rabbit pAb: Cat# G9545). Secondary antibody (Goat Anti-Rabbit IgG (H + L)-HRP Conjugate; Cat#:1706515) was from Bio-Rad Laboratories (Hercules, CA, USA).
In this experiment, IC50 was calculated via quantifying changes in p-AMPK(Thr172) normalized to total AMPK levels.

[2] = tested on: p-AMPK(Thr172) in MDA-MB-231 cells; test: Immunoblot of p-AMPK(Thr172) in MDA-MB-231 breast cancer cells; format: cell-based; conditions: 24 h
Description: The cells were then washed three times with 2 mL of ice-cold PBS and lysed with 0.15 mL of phospho-RIPA lysis buffer (Tris-Cl pH 7.5, 50 mM; NaCl, 150 mM; NP-40, 1%; sodium deoxycholate, 0.5%; SDS, 0.05%; EDTA, 5 mM; sodium fluoride, 50 mM; sodium pyrophosphate, 15 mM; ß-glycerophosphate, 10 mM; sodium orthovanadate, 1 mM) with protease inhibitor cocktail (Millipore-Sigma, P-8340). Equal amounts of protein per sample/lane were denatured and resolved by SDS-PAGE. Proteins were transferred to Odyssey Nitrocellulose Membranes (LI-COR Biosciences, cat no: 926-31092), and quantitative immunoblotting was performed using the Odyssey infrared immunoblotting detection system (LI-COR Biosciences, Lincoln, NE, USA). Images were captured using the LI-COR Odyssey Classic scanner and processed using LI-COR Image Studio software, version 4.0. Quantification of the bands was done using Image Studio software tools whereby each individual immunoblot band was highlighted to obtain the signal intensity. The signal intensity of the pAMPK band was then divided by that of total AMPK and the data were normalized to the vehicle-only controls for each experiment. Primary antibodies used were anti-phospho AMPKα (Thr172) (Cell Signaling, cat no: 2535, dilution 1:1000); anti-AMPKα (Cell Signaling, cat.no: 2532, dil 1:500), and anti β-actin (Cat no: 3700, Cell signaling, dil 1:10,000). […]

CAMKK2 = CAMKK2 (Homo sapiens, UniProt Q96RR4); test: CAMKK2 enzyme assay (radiolabeled phosphate transfer from [γ-32P]-ATP to CaMKKtide); format: biochemical; design: purified recombinant CAMKK2 (100 pM) was incubated in assay buffer; conditions: 200 μM ATP, 100 pM CAMKK2
Description: CAMKK2 activity was determined by measuring the transfer of radiolabeled phosphate from [γ-^32P]-ATP to a synthetic peptide substrate (CaMKKtide) as previously described. Briefly, purified recombinant CAMKK2 (100 pM) was incubated in assay buffer (50 mM HEPES [pH 7.4], 1 mM DTT, 0.02% [v/v] Brij-35) containing 200 μM CaMKKtide (Genscript), 100 μM CaCl2, 1 μM CaM (Sigma-Aldrich, Castle Hill, NSW, Australia), 200 μM [γ-^32P]-ATP (Perkin Elmer, Boston, MA, USA), 5 mM MgCl2 (Sigma-Aldrich, Castle Hill, NSW, Australia), and various concentrations of inhibitors (0–1 μM) in a standard 30 μL assay for 10 min at 30 °C. Reactions were terminated by spotting 15 μL onto P81 phosphocellulose paper (GE Lifesciences, Paramatta, NSW, Australia) and washing extensively in 1% phosphoric acid (Sigma-Aldrich, Castle Hill, NSW, Australia). Radioactivity was quantified by liquid scintillation counting.
A series of furo [2,3-b]pyridines were generated with modifications off the core at the 3- and 5-positions. They were profiled in the CAMKK2 enzyme assay we have described and utilized previously. Briefly, the enzyme assay measures the ability of the compound to inhibit the transfer of a radiolabeled phosphate from ATP to a CAMKK2-specific peptide. […] The S10 (1 µM), a calculated score that is reflective of broad kinome selectivity, is 0.002 for the probe molecule.

[3] = tested on: panel of more than 400 wild-type human kinases; test: DiscoverX KINOMEscan broad kinome profiling (panel of more than 400 wild-type human kinases), selectivity score S10; format: binding; conditions: KINOMEscan at 1 μM; number of wild type kinases with % control ≤10 / number tested
Description: Compounds were screened at Eurofins DiscoverX (Freemont, CA) at a single concentration of 1 μM using binding assays as described previously. Briefly, extracts containing DNA-tagged kinases are incubated with immobilized kinase inhibitors and the test compound (at 1 μM). Test compounds that displace the immobilized broad-spectrum inhibitors are detected by quantitative PCR. The results are expressed as the percentage of kinase bound to the bead compared to DMSO control (%control). […] The formula to calculate S10 depicted in Equation (1). (1) S10(1 μM)=number of wild type kinase with % control ≤10/number of wild type kinase tested
A series of furo [2,3-b]pyridines were generated with modifications off the core at the 3- and 5-positions. They were profiled in the CAMKK2 enzyme assay we have described and utilized previously. Briefly, the enzyme assay measures the ability of the compound to inhibit the transfer of a radiolabeled phosphate from ATP to a CAMKK2-specific peptide. […] 5 was then profiled in the DiscoverX KINOMEscan™ assay panel to provide a view of the overall kinome-wide selectivity (Supplemental S2). This assay platform evaluates compound affinity for a panel of more than 400 wild-type human kinases. The S10 (1 µM), a calculated score that is reflective of broad kinome selectivity, is 0.002 for the probe molecule.

[4] = molecular target: T1, EGFR(L747-S752del, P753S) (Homo sapiens, UniProt P00533, DEL747-752/P753S); test: KINOMEscan binding assay at 1 μM, EGFR(L747-S752del, P753S); conditions: Compound Concentration 1000 nM; read-out: Percent Control
T1 construct: purchased Eurofins DiscoverX KINOMEscan
Source text: (§1) Supplement cells-12-00287-s001.zip/File S2. KinomeScan data for the CAMKK2 probe and negative control.xlsx, sheet "SGC-CAMKK2-1N" | column: Percent Control

MLCK = molecular target: T2, MLCK (Homo sapiens, UniProt Q32MK0); test: KINOMEscan binding assay at 1 μM, MLCK; conditions: Compound Concentration 1000 nM; read-out: Percent Control
T2 construct: purchased Eurofins DiscoverX KINOMEscan
Source text: as §1

T1 sequence (P00533 with tags, fused parts or gaps DEL747-752/P753S limits assumed): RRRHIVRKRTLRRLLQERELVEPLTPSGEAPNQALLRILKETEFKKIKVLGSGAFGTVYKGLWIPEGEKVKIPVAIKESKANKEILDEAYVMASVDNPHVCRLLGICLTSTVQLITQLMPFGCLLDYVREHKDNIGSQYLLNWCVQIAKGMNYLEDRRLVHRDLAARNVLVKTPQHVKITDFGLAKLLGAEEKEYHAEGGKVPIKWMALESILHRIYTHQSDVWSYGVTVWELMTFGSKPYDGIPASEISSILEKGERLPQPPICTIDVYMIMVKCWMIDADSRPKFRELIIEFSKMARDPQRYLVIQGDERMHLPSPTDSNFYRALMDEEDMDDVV
T2 sequence (Q32MK0 whole entry): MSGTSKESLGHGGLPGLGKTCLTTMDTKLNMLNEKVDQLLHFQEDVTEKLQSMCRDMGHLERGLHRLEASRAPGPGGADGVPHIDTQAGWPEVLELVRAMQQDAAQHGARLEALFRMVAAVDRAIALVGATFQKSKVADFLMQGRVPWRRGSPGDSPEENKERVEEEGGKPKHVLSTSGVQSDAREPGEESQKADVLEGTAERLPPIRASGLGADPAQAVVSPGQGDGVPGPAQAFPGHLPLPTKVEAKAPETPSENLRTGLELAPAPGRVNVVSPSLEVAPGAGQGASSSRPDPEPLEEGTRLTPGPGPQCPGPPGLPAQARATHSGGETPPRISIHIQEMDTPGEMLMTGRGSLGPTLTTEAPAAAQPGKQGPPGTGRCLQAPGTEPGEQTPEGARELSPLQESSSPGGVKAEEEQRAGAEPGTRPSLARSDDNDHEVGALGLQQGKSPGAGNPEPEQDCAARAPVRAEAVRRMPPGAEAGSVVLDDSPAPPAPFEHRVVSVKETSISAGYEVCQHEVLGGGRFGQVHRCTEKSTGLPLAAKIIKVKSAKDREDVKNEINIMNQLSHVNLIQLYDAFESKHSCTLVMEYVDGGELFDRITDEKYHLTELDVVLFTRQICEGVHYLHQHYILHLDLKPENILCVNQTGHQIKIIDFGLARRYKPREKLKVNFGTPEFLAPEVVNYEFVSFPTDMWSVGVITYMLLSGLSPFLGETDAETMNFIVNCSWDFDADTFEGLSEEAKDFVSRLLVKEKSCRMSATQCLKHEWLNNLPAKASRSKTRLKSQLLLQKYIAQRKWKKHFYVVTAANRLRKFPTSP

Row | Structure (SMILES) | activity on p-AMPK(Thr172) levels (in words) [1] | IC50 [1] [nM] | blocking of AMPK phosphorylation (in words) ([2]; negative control at 10 μM) | IC50 (CAMKK2; n = 1) [µM] | S10 (1 μM) [3] | remaining binding at 1 µM [4] [%] | remaining binding at 1 µM (MLCK) [%] | blocking of AMPK phosphorylation (in words) ([2]; SGC-CAMKK2-1) | IC50 (CAMKK2) [µM]
1 | O=C(O)c1ccc(-c2coc3ncc(-c4ccccc4)cc23)cc1Cl [Compound 7] | did not have any measurable activity | ≥ 10000 | no effect | 27 | 0.005 |  |  |  | 
2 | O=C(O)c1ccc(-c2coc3ncc(-c4ccccc4)cc23)cc1Cl [SGC-CAMKK2-1N (UNC-YL-83)] |  |  |  |  |  | 100 | 100 |  | 
3 | Cc1cccc(-c2cnc3occ(-c4ccc(C(=O)O)c(C5CCCC5)c4)c3c2)c1 [Compound 5] |  | 1600 |  |  | 0.002 |  |  | more effective than STO-609; also recorded: higher efficacy than STO-609 | 0.03
